US20170008888A1 (KYORIN PHARMACEUTICAL CO., LTD., priority 2014, published 2017)

Columns and labels:
Format in all cases: binding
JAK1 = target: T1, JAK1 (Homo sapiens, UniProt P23458); assay: Probe-based (AX9989) kinase profiling in Jurkat lysate: JAK1; conditions: for inhibition at 1 µM: screening concentration 1.0 μM
T1 construct: screened for activity against several kinases in Jurkat cells; endogenous in cells; host or cells: Jurkat cell lysate
Protocol: (§1) In this example, potency of the compounds as ERK5 inhibitors was assessed, and the compounds were screened for activity against several kinases in Jurkat cells.
(§2) Jurkat cell pellets were resuspended in four volumes of lysis buffer (50 mM HEPES pH 7.5, 150 mM NaCl, 0.1% Triton-X-100, 1% v/v phosphatase, inhibitor cocktail II [EMD/Calbiochem, #524625]), sonicated using a tip, sonicator, and Dounce homogenized. Lysate was cleared by centrifugation, at 16,000 g for 15 min., was gel filtered (BioRad 10DG) and MnCl2 was then added to a final concentration of 20 mM before treatment with the test compound and probe labeling. […] All compound treatments were performed at room temperature.
(§3) Acyl phosphate ATP probe (AX9989) labeling reactions were performed at room temperature with a final probe concentration of 5 μM after a 15 min pre-incubation of lysate with a test compound. All reactions were performed in duplicate, using 445 μl/sample at 5 mg/ml. Probe-labeled lysates were denatured and reduced (6 M urea, 10 mM DTT, 65° C., 15 min), alkylated (40 mM iodoacetamide, 37° C., 30 min, and gel filtered (Sephadex G25) into 10 mM ammonium bicarbonate, 2 M urea, 5 mM methionine. The desalted protein mixture was digested with trypsin (0.015 mg/ml) for 1 hr at 37° C., and desthiobiotinylated peptides were captured using a […] high-capacity streptavidin resin (Thermo Scientific). Captured peptides were then washed extensively using 150 μl/wash with three different wash buffers: (A) 3 times with 1% triton, 0.5% tergitol, 1 mM EDTA in PBS; (B) 18 times with PBS; and (C) 8 times with HPLC grade water. Peptides were eluted from the streptavidin beads using two 35-μL washes of a 50% CH3CN/water mixture containing 0.1% TFA at room temperature.
(§4) Kinase active site peptides were identified and quantified using LC/MS. Percent inhibition was calculated as the normalized decrease in the ESI-MS fragment intensities of probe-labeled peptides in samples incubated with the test compound compared to those without.

AurB or AurC = assay: Probe-based (AX9989) kinase profiling in Jurkat lysate: AurB or AurC
Protocol: as §1, §2, §3, §4

AMPKa1 or AMPKa2 = assay: Probe-based (AX9989) kinase profiling in Jurkat lysate: AMPKa1 or AMPKa2
Protocol: as §1, §2, §3, §4

ABL or ARG = assay: Probe-based (AX9989) kinase profiling in Jurkat lysate: ABL or ARG
Protocol: as §1, §2, §3, §4

ACK = target: T2, ACK (Homo sapiens, UniProt Q07912); assay: Probe-based (AX9989) kinase profiling in Jurkat lysate: ACK; conditions: for inhibition at 1 µM: screening concentration 1.0 μM
T2 construct: screened for activity against several kinases in Jurkat cells; endogenous in cells; host or cells: Jurkat cell lysate
Protocol: as §1, §2, §3, §4

TAO2 = target: T3, TAO2 (Homo sapiens, UniProt Q9UL54); assay: Probe-based (AX9989) kinase profiling in Jurkat lysate: TAO2; conditions: for inhibition at 1 µM: screening concentration 1.0 μM
T3 construct: screened for activity against several kinases in Jurkat cells; endogenous in cells; host or cells: Jurkat cell lysate
T3 sequence (Q9UL54 1-1235): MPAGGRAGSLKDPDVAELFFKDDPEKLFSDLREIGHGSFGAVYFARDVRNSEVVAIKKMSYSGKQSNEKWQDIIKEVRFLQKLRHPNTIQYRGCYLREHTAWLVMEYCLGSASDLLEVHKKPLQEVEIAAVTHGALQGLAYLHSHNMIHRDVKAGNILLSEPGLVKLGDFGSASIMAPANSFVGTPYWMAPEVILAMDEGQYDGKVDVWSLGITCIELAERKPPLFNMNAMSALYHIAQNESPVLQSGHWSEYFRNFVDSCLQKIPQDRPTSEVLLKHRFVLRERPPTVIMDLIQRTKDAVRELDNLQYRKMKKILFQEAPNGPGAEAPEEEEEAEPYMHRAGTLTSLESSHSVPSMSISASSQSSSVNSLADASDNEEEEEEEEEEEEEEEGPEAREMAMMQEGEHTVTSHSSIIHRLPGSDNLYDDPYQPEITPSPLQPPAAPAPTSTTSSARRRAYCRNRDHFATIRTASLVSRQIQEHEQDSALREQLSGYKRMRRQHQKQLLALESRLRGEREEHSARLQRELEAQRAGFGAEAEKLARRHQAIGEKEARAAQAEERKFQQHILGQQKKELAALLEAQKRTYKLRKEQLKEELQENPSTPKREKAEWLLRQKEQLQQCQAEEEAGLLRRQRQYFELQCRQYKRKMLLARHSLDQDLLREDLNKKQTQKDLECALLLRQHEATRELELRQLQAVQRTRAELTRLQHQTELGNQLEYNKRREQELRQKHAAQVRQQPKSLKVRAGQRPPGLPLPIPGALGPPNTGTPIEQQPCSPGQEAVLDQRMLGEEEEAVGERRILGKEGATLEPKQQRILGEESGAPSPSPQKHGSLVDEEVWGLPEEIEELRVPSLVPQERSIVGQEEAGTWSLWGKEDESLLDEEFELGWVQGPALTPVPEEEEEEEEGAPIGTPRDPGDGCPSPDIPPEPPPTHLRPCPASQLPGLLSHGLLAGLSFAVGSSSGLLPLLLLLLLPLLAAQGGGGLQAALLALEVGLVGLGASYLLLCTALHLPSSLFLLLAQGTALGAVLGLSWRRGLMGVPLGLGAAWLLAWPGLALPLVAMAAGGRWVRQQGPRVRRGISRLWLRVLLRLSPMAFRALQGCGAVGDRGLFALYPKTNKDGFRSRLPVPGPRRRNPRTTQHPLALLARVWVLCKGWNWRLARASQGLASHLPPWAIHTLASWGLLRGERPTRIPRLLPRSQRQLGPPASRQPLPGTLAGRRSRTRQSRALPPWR
Protocol: as §1, §2, §3, §4

AurA = target: T4, AurA (Homo sapiens, UniProt O14965); assay: Probe-based (AX9989) kinase profiling in Jurkat lysate: AurA; conditions: for inhibition at 1 µM: screening concentration 1.0 μM
T4 construct: screened for activity against several kinases in Jurkat cells; endogenous in cells; host or cells: Jurkat cell lysate
T4 sequence (O14965 1-403): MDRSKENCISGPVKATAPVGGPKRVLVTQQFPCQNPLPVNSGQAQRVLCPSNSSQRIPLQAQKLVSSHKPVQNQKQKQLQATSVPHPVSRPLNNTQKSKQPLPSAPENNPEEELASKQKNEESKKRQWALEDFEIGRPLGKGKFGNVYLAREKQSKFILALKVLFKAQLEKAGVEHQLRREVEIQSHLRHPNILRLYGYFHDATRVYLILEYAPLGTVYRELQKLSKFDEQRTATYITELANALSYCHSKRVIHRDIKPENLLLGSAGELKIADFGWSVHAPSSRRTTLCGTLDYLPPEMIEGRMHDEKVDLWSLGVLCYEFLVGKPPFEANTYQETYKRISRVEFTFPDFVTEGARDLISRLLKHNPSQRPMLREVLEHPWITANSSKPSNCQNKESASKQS
Protocol: as §1, §2, §3, §4

ERK5 = target: T5, ERK5 (Homo sapiens, UniProt Q13164); assay: Probe-based (AX9989 acyl phosphate ATP probe) kinase profiling in Jurkat lysate: ERK5; conditions: for IC50: Jurkat lysate; for inhibition at 1 µM: screening concentration 1.0 μM
T5 construct: screened for activity against several kinases in Jurkat cells; endogenous in cells; host or cells: Jurkat cell lysate
Protocol: as §1, §2, §3, §4
ERK5 IC50 values were calculated from the percent inhibition and the screening concentration.

[1] = read-out: Kinase inhibition % at indicated screening concentration: JAK1
[2] = read-out: Kinase inhibition % at indicated screening concentration: ACK
[3] = read-out: Kinase inhibition % at indicated screening concentration: TAO2
[4] = read-out: Kinase inhibition % at indicated screening concentration: AurA
[5] = calculated from percent inhibition of AX9989 labeling and the screening concentration
[6] = read-out: Kinase inhibition % at indicated screening concentration: ERK5

T1 sequence (P23458 whole entry): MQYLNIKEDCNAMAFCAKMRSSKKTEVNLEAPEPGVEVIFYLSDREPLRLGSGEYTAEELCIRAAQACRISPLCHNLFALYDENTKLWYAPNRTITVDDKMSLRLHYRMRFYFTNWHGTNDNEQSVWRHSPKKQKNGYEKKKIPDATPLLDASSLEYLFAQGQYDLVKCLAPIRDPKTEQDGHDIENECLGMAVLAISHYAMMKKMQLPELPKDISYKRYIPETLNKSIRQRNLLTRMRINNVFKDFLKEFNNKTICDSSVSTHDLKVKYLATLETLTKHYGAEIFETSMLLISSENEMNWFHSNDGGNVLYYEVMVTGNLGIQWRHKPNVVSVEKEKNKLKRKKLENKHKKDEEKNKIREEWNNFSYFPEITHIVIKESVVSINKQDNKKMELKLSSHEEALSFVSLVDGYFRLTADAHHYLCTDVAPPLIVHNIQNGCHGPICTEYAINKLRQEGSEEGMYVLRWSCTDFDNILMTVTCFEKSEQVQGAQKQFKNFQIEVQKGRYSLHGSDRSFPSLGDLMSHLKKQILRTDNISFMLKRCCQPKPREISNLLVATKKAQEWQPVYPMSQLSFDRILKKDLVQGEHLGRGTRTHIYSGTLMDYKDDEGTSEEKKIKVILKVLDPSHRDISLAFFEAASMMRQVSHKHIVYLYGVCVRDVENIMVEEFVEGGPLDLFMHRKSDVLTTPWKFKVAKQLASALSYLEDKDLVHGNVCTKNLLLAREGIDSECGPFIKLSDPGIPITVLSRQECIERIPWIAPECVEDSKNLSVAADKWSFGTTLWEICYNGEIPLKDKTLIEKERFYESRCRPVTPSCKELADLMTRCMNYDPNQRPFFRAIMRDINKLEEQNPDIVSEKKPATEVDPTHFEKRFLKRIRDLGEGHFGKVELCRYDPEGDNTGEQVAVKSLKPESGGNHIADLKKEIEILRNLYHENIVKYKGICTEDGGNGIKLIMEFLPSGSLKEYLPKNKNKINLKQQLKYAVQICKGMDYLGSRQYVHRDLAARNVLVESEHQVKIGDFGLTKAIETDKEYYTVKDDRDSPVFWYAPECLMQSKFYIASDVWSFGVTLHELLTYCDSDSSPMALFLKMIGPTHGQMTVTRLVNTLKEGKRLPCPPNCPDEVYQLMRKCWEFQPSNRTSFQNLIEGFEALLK
T2 sequence (Q07912 whole entry): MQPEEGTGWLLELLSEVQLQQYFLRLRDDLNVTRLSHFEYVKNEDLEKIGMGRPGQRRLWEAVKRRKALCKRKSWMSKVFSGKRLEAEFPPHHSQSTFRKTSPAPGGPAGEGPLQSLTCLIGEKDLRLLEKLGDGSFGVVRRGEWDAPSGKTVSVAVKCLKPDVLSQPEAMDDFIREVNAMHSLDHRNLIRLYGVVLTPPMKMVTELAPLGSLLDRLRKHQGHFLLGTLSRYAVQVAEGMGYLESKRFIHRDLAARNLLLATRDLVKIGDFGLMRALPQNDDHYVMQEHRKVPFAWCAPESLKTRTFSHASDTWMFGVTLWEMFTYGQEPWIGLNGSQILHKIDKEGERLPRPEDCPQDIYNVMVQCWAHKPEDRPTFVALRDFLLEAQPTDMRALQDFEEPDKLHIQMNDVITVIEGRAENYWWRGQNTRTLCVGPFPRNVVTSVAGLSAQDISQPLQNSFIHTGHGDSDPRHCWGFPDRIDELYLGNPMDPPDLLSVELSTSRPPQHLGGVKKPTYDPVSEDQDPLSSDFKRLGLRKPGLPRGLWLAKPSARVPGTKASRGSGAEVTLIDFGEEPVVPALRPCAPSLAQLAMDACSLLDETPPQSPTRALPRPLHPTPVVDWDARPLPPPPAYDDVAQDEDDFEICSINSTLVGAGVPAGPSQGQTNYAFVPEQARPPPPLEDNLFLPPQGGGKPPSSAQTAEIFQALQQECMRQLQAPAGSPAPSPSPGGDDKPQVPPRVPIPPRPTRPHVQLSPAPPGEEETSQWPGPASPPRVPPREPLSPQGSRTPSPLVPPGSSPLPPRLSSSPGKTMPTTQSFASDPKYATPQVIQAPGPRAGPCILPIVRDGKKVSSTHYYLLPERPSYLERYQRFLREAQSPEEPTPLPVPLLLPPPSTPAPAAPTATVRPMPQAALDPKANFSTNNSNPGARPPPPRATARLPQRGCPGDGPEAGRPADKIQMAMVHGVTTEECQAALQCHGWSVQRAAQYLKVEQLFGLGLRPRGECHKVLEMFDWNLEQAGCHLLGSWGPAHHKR
T5 sequence (Q13164 whole entry): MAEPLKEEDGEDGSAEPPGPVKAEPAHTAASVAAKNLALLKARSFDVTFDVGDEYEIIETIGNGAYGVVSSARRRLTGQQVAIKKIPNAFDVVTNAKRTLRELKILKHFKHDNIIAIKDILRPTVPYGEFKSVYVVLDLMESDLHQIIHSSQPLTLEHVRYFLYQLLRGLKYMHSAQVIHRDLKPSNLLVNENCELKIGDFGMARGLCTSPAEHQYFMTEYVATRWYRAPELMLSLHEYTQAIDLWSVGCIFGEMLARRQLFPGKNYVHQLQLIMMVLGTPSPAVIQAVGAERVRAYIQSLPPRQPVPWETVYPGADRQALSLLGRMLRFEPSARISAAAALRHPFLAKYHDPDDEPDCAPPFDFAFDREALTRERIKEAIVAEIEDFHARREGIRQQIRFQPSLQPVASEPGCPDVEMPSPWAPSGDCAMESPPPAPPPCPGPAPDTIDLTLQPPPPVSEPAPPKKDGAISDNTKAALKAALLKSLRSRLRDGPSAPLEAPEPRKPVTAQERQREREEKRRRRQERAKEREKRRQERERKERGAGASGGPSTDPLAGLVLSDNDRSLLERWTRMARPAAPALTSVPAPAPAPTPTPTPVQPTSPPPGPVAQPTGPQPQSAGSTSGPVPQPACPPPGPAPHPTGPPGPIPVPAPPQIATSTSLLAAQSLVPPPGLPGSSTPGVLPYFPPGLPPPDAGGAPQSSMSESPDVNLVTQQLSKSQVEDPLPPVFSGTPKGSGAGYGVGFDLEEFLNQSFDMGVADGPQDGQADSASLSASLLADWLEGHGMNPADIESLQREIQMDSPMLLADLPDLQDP

inhibition at 1 µM (JAK1; [1]) [%]	Kinase inhibition % at indicated screening concentration: AurB or AurC (AurB or AurC; screening concentration 1.0 μM)	Kinase inhibition % at indicated screening concentration: AMPKa1 or AMPKa2 (AMPKa1 or AMPKa2; screening concentration 1.0 μM)	Kinase inhibition % at indicated screening concentration: ABL or ARG (ABL or ARG; screening concentration 1.0 μM)	inhibition at 1 µM (ACK; [2]) [%]	inhibition at 1 µM (TAO2; [3]) [%]	inhibition at 1 µM (AurA; [4]) [%]	IC50 (ERK5; [5]) [µM]	inhibition at 1 µM (ERK5; [6]) [%]	Structure (SMILES)	further results
≤ 35	E (E is ≦35%)	E (E is ≦35%)	E (E is ≦35%)	≤ 35	≤ 35	≤ 35	> 0.5	≤ 35	CN1C(=O)C2CCCCC2N(C)c2cc(NC3CCC(N)CC3)ncc21 (stereo not drawn) [Compound 97]	–
≤ 35	E (E is ≦35%)	E (E is ≦35%)	E (E is ≦35%)	≤ 35	≤ 35	≤ 35	> 0.5	35 to 50	CCOc1cc(Cl)ccc1Nc1cc2c(cn1)N(C)C(=O)c1ccccc1N2C [Compound 104]	–
–	–	–	–	–	–	–	0.101 to 0.5	–	CCOc1cc(CO)ccc1Nc1cc2c(cn1)N(C)C(=O)c1ccccc1N2C [Compound 112]	inhibition at 0.1 µM (JAK1; screening concentration 0.1 μM, read-out: Kinase inhibition % at indicated screening concentration: JAK1): ≤ 35%; Kinase inhibition % at indicated screening concentration: AurB or AurC (AurB or AurC; screening concentration 0.1 μM): E (E is ≦35%); Kinase inhibition % at indicated screening concentration: AMPKa1 or AMPKa2 (AMPKa1 or AMPKa2; screening concentration 0.1 μM): E (E is ≦35%); Kinase inhibition % at indicated screening concentration: ABL or ARG (ABL or ARG; screening concentration 0.1 μM): E (E is ≦35%); inhibition at 0.1 µM (ACK; screening concentration 0.1 μM, read-out: Kinase inhibition % at indicated screening concentration: ACK): ≤ 35%; inhibition at 0.1 µM (TAO2; screening concentration 0.1 μM, read-out: Kinase inhibition % at indicated screening concentration: TAO2): ≤ 35%; inhibition at 0.1 µM (AurA; screening concentration 0.1 μM, read-out: Kinase inhibition % at indicated screening concentration: AurA): ≤ 35%; inhibition at 0.1 µM (ERK5; screening concentration 0.1 μM, read-out: Kinase inhibition % at indicated screening concentration: ERK5): 35 to 50%
–	–	–	–	–	–	–	–	–	CCOc1cc(C(=O)O)ccc1Nc1cc2c(cn1)N(C)S(=O)(=O)c1ccccc1N2C [Compound T1]	inhibition at 10 µM (JAK1; screening concentration 10 μM, read-out: JAK1 Inhibition % at indicated screening concentration): ≤ 35%; AurB or AurC Inhibition % at indicated screening concentration (AurB or AurC; screening concentration 10 μM): E (E is ≦35%); AMPKa1 or AMPKa2 Inhibition % at indicated screening concentration (AMPKa1 or AMPKa2; screening concentration 10 μM): E (E is ≦35%); ABL or ARG Inhibition % at indicated screening concentration (ABL or ARG; screening concentration 10 μM): E (E is ≦35%); inhibition at 10 µM (ACK; screening concentration 10 μM, read-out: ACK Inhibition % at indicated screening concentration): ≤ 35%; inhibition at 10 µM (TAO2; screening concentration 10 μM, read-out: TAO2 Inhibition % at indicated screening concentration): ≤ 35%; inhibition at 10 µM (AurA; screening concentration 10 μM, read-out: AurA Inhibition % at indicated screening concentration): ≤ 35%; IC50 (ERK5; calculated from percent inhibition and screening concentration, AX9989 probe): > 0.5 µM; inhibition at 10 µM (ERK5; screening concentration 10 μM, read-out: ERK5 Inhibition % at indicated screening concentration): ≤ 35%
